Patent publication US10131652B2, “Pyrimidinyloxy benzene derivatives as herbicides” (E. I. DU PONT DE NEMOURS AND COMPANY, priority 2014, dated 2018)

Tests used:
Assay type in all cases: in vivo
[1] = tested on: chickweed (common chickweed, Stellaria media); experiment: Test D postemergence plant response; settings: for Plant response rating, Chickweed: scale 0 to 100, 0 no effect, 100 complete control
In short: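 Visual 0–100 rating vs controls (0 = no effect, 100 = complete control), scored 13–15 d after postemergence spray. Plants 1- to 4-leaf stage (2–18 cm), potted in peat/vermiculite mix, kept in greenhouse.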

[2] = tested on: blackgrass (Alopecurus myosuroides); experiment: Test B postemergence plant response; settings: Postemergence, 1000 g ai/ha; 0 to 100 scale (0 no effect, 100 complete control)
In short: (§1)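 Visual injury ratings, 0 = no effect to 100 = complete control, versus untreated controls approximately 10 days after postemergence spraying in greenhouse. Plants were at one- to two-leaf stage, 2 to 10 cm tall, in loam soil/sand blend; a dash denotes no result.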

[3] = tested on: galium (catchweed bedstraw, Galium aparine); experiment: Test B postemergence plant response; settings: Postemergence, 1000 g ai/ha; 0 to 100 scale (0 no effect, 100 complete control)
In short: as §1

corn (Zea mays) = experiment: Test D pre-/postemergence plant response; settings: Postemergence; for Plant response rating, Corn: scale 0 to 100, 0 no effect, 100 complete control
In short: (§2)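 0 = no effect, 100 = complete control: plants were scored this way by visual comparison with controls 13 to 15 days post-treatment. Application was preemergence to sown loam/sand pots or postemergence to 2–18 cm seedlings in peat-based mix.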

[4] = tested on: morningglory (Ipomoea coccinea); experiment: Test D pre-/postemergence plant response; settings: Postemergence
In short: as §2

[5] = tested on: waterhemp (common waterhemp, Amaranthus rudis); experiment: Test D pre-/postemergence plant response; settings: Postemergence
In short: as §2

[6] = tested on: giant foxtail (Setaria faberii); experiment: Test D pre-/postemergence plant response; settings: Postemergence; for Plant response rating, Foxtail, Giant: scale 0 to 100, 0 no effect, 100 complete control
In short: as §2

[7] = tested on: yellow nutsedge (Cyperus esculentus); experiment: Test D pre-/postemergence plant response; settings: Postemergence
In short: as §2

[8] = tested on: oilseed rape (Brassica napus); experiment: Test D pre-/postemergence plant response; settings: Postemergence
In short: as §2

[9] = tested on: ragweed (common ragweed, Ambrosia elatior); experiment: Test D pre-/postemergence plant response; settings: Postemergence
In short: as §2

soybean (Glycine max) = experiment: Test D pre-/postemergence plant response; settings: Postemergence
In short: as §2

[10] = tested on: barnyardgrass (Echinochloa crus-galli); experiment: Test D pre-/postemergence plant response; settings: Postemergence; for Plant response rating, Barnyardgrass: scale 0 to 100, 0 no effect, 100 complete control
In short: as §2

[11] = tested on: pigweed (Amaranthus retroflexus); experiment: Test D pre-/postemergence plant response; settings: Postemergence
In short: as §2

[12] = tested on: Italian ryegrass (Lolium multiflorum); experiment: Test D pre-/postemergence plant response; settings: Postemergence
In short: as §2

[13] = 31 g ai/ha, scale 0 to 100 (0 no effect, 100 complete control)
[14] = 62 g ai/ha, scale 0 to 100, 0 no effect, 100 complete control
[15] = 125 g ai/ha, scale 0 to 100, 0 no effect, 100 complete control

FCc1cc(-c2c(Br)cccc2Oc2ncc(Cl)cn2)no1 [Compound 191]
Plant response rating (scale 0 to 100), Chickweed ([1]; 16 g ai/ha): 50 | Chickweed plant response rating [1, 13]: 55 | Plant response rating, Chickweed ([1]; 62 g ai/ha): 70 | Plant response rating, Chickweed ([1]; 125 g ai/ha): 90 | Plant response rating, Blackgrass [2]: 100 | Plant response rating, Galium [3]: 100 | Plant response rating (scale 0 to 100), Corn (corn (Zea mays); 16 g ai/ha): 5 | Corn plant response rating (corn (Zea mays); [13]): 5 | Plant response rating, Corn (corn (Zea mays); 62 g ai/ha): 10 | Plant response rating, Corn (corn (Zea mays); 125 g ai/ha): 10 | Plant response rating (scale 0 to 100), Morningglory ([4]; 16 g ai/ha): 65 | Morningglory plant response rating [4, 13]: 65 | Morningglory plant response rating [4, 14]: 60 | Plant response rating, Morningglory [4, 15]: 85 | Plant response rating (scale 0 to 100), Waterhemp ([5]; 16 g ai/ha): 25 | Waterhemp plant response rating [5, 13]: 60 | Waterhemp plant response rating [5, 14]: 70 | Plant response rating, Waterhemp [5, 15]: 65 | Plant response rating (scale 0 to 100), Foxtail, Giant ([6]; 16 g ai/ha): 5 | Foxtail, Giant plant response rating [6, 13]: 5 | Plant response rating, Foxtail, Giant ([6]; 62 g ai/ha): 5 | Plant response rating, Foxtail, Giant ([6]; 125 g ai/ha): 5 | Plant response rating (scale 0 to 100), Nutsedge, Yellow ([7]; 16 g ai/ha): 0 | Nutsedge, Yellow plant response rating [7, 13]: 5 | Nutsedge, Yellow plant response rating [7, 14]: 5 | Plant response rating, Nutsedge, Yellow [7, 15]: 10 | Plant response rating (scale 0 to 100), Oilseed Rape ([8]; 16 g ai/ha): 0 | Oilseed Rape plant response rating [8, 13]: 40 | Oilseed Rape plant response rating [8, 14]: 60 | Plant response rating, Oilseed Rape [8, 15]: 90 | Plant response rating (scale 0 to 100), Ragweed ([9]; 16 g ai/ha): 30 | Ragweed plant response rating [9, 13]: 40 | Ragweed plant response rating [9, 14]: 60 | Plant response rating, Ragweed [9, 15]: 65 | Plant response rating (scale 0 to 100), Soybean (soybean (Glycine max); 16 g ai/ha): 45 | Soybean plant response rating (soybean (Glycine max); [13]): 65 | Soybean plant response rating (soybean (Glycine max); [14]): 75 | Plant response rating, Soybean (soybean (Glycine max); [15]): 95 | Plant response rating (scale 0 to 100), Barnyardgrass ([10]; 16 g ai/ha): 5 | Barnyardgrass plant response rating [10, 13]: 5 | Plant response rating, Barnyardgrass ([10]; 62 g ai/ha): 5 | Plant response rating, Barnyardgrass ([10]; 125 g ai/ha): 10 | Plant response rating (scale 0 to 100), Pigweed ([11]; 16 g ai/ha): 35 | Pigweed plant response rating [11, 13]: 30 | Pigweed plant response rating [11, 14]: 30 | Plant response rating, Pigweed [11, 15]: 60 | Plant response rating (scale 0 to 100), Ryegrass, Italian ([12]; 16 g ai/ha): 0 | Ryegrass, Italian plant response rating [12, 13]: 0 | Ryegrass, Italian plant response rating [12, 14]: 0 | Plant response rating, Ryegrass, Italian [12, 15]: 5
